Like-named read-outs stand apart in the source and are kept apart here.
Conditions: amide bond, 33-membered ring, BOP/DMAP

CC[C@@H]1NC(=O)[C@@H]2C[C@@H](O)CN2C(=O)[C@H](C(C)C)N(C)C(=O)[C@H](CC(C)C)N(C)C(=O)[C@H](CC(C)C)N(C)C(=O)[C@@H](C)NC(=O)[C@H](C)NC(=O)[C@H](CC(C)C)N(C)C(=O)[C@H](C(C)C)NC(=O)[C@H](CC(C)C)N(C)C(=O)CN(C)C1=O
ring closure, isolated yield (from H-Hyp-Abu-Sar-MeLeu-Val-MeLeu-Ala-dAla-MeLeu-MeLeu-MeVal-OH, CH2Cl2, 0.35 mM): 30%

CCCC[C@@H]1NC(=O)[C@H](CO)N(C)C(=O)[C@H](C(C)C)N(C)C(=O)[C@H](CC(C)C)N(C)C(=O)[C@H](CC(C)C)N(C)C(=O)[C@@H](C)NC(=O)[C@H](C)NC(=O)[C@H](CC(C)C)N(C)C(=O)[C@H](C(C)C)NC(=O)[C@H](CC(C)C)N(C)C(=O)CN(C)C1=O
ring closure, isolated yield (from H-MeSer-Nle-Sar-MeLeu-Val-MeLeu-Ala-dAla-MeLeu-MeLeu-MeVal-OH, THF/CH2Cl2 1:1, 0.433 mM): 16%

CCC[C@@H]1NC(=O)[C@H](CO)N(C)C(=O)[C@H](C(C)C)N(C)C(=O)[C@H](CC(C)C)N(C)C(=O)[C@H](CC(C)C)N(C)C(=O)[C@@H](C)NC(=O)[C@H](C)NC(=O)[C@H](CC(C)C)N(C)C(=O)[C@H](C(C)C)NC(=O)[C@H](CC(C)C)N(C)C(=O)CN(C)C1=O
ring closure, isolated yield (from H-MeSer-Nva-Sar-MeLeu-Val-MeLeu-Ala-dAla-MeLeu-MeLeu-MeVal-OH, CH2Cl2/THF 1:1, 3.9 mM): 20%

CCCC[C@@H]1NC(=O)[C@H]([C@@H](C)O)N(C)C(=O)[C@H](C(C)C)N(C)C(=O)[C@H](CC(C)C)N(C)C(=O)[C@H](CC(C)C)N(C)C(=O)[C@@H](C)NC(=O)[C@H](C)NC(=O)[C@H](CC(C)C)N(C)C(=O)[C@H](C(C)C)NC(=O)[C@H](CC(C)C)N(C)C(=O)CN(C)C1=O
ring closure, isolated yield (from H-MeThr-Nle-Sar-MeLeu-Val-MeLeu-Ala-dAla-MeLeu-MeLeu-MeVal-OH, CH2Cl2, 0.325 mM): 14%

CC[C@@H]1NC(=O)[C@H](CCNC(=O)OCC2c3ccccc3-c3ccccc32)NC(=O)[C@H](C(C)C)N(C)C(=O)[C@H](CC(C)C)N(C)C(=O)[C@H](CC(C)C)N(C)C(=O)[C@@H](C)NC(=O)[C@H](C)NC(=O)[C@H](CC(C)C)N(C)C(=O)[C@H](C(C)C)NC(=O)[C@H](CC(C)C)N(C)C(=O)CN(C)C1=O
ring closure, isolated yield (from H-Dab(Fmoc)-Abu-Sar-MeLeu-Val-MeLeu-Ala-dAla-MeLeu-MeLeu-MeVal-OH, CH2Cl2, 0.165 mM): 37%

CCCC[C@@H]1NC(=O)[C@@H]2C[C@@H](O)CN2C(=O)[C@H](C(C)C)N(C)C(=O)[C@H](CC(C)C)N(C)C(=O)[C@H](CC(C)C)N(C)C(=O)[C@@H](C)NC(=O)[C@H](C)NC(=O)[C@H](CC(C)C)N(C)C(=O)[C@H](C(C)C)NC(=O)[C@H](CC(C)C)N(C)C(=O)CN(C)C1=O
ring closure, isolated yield (from H-Hyp-Nle-Sar-MeLeu-Val-MeLeu-Ala-dAla-MeLeu-MeLeu-MeVal-OH, CH2Cl2, 0.4 mM): 26%

CC[C@@H]1NC(=O)[C@H](CO)N(C)C(=O)[C@H](C(C)C)N(C)C(=O)[C@H](CC(C)C)N(C)C(=O)[C@H](CC(C)C)N(C)C(=O)[C@@H](C)NC(=O)[C@H](C)NC(=O)[C@H](CC(C)C)N(C)C(=O)[C@H](C(C)C)NC(=O)[C@H](CC(C)C)N(C)C(=O)CN(C)C1=O
ring closure, isolated yield (from H-MeSer-Abu-Sar-MeLeu-Val-MeLeu-Ala-dAla-MeLeu-MeLeu-MeVal-OH, CH2Cl2, 0.176 mM): 15%

From patent US5079341
